Reference: US4029801A, “Pharmaceutical compositions and methods of treating hypertension” (priority 1970, dated 1977)
Like-named read-outs stand apart in the source and are kept apart here.

Legend:
Depressant activity = type: in vivo; conditions: result in words
histamine = target: T1, histamine (Cavia porcellus, UniProt P31389); assay: Antihistamine activity by the method of Alps et al.; conditions: for antihistamine activity: result in words
T1 construct: from tissue

[1] = test system: blood pressure and heart rate; assay: Method 1 (cat): blood pressure, heart rate and left ventricular pressure in anaesthetised cats, i.v.; type: in vivo; conditions: 3.2 mg/kg
Procedure: (§1) Cats were anaesthetised with pentobarbitone sodium (30 mg/kg) and the cephalic vein, femoral and carotid arteries and trachea were cannulated. The carotid cannula was introduced into the left ventricle and the femoral cannula into the aorta. Blood pressure and heart rate were recorded from the aortic cannula and left ventricular pressure from the carotid cannula. The test compunds were administered intravenously (0.1-25.6 mg/kg).

systolic pressure = assay: Method 2: anti-hypertensive activity in renal hypertensive rats; type: in vivo, rat; conditions: hypertensive rat
Procedure: (§2) Method 2 (hypertensive rats)
(§3) Male or female rats are rendered hypertensive by applying a figure of 8 ligature around one kidney and contralateral nephrectomy. Blood pressure stabilises at a hypertensive level after 6 weeks. Systolic pressure is measured indirectly using a Decker Caudal Plethysmograph A control group of rats is run with each group treated with drug. Each group usually consists of six rats. Drugs are usually administered by the IP or oral routes. Pressures are read prior to drug administration and at two and 24 hours thereafter.
Falls in systolic blood pressure 2 hr after an oral dose of 40 mg/kg: >50
mm, +++; 50-30 mm, ++; 30-15 mm, +; <15 mm, ±. g Oral dose of 75 mg/kg
h Oral dose of 10 mg/kg. i Oral dose of 2.5 mg/kg.

[2] = Anti-inflammatory activity; type: in vivo; conditions: result in words
α-adrenoceptor = assay: α-Adrenoceptor antagonism on the guinea pig aortic strip; conditions: for α-blockade pA2: Table 4; for pA2 (α-adrenoceptor antagonism): guinea pig aortic strip; for α-adrenoceptor antagonism: result in words
From the text: Carried out on the guinea pig aortic strip [Furchgott and Bhadrakom (1953) J. Pharmac. exp. Ther. 108, 129-143] by the method of Alps et al [Br. J. Pharmac. 1972 44, 52-62].

blood pressure = assay: Tests for action on the cardiovascular system: hypotensive activity (activity in method 1, rats or cats, or method 2), reported in words; type: in vivo, rat, cat; conditions: standard test procedure, result in words
Procedure: Tests for action on the cardiovascular system were conducted according to one of the following procedures:
as §1, §2, §3

[3] = test system: blood pressure and heart rate; assay: Method 1 (rat): hypotensive activity in anaesthetised rats, i.v.; conditions: for minimal effective dose: Rattus norvegicus, iv; for Significant bradycardia (dose; decrease in heart rate of more than 30%): anaesthetised rat, i.v., cumulative dose
Procedure: Rats were anaesthetised with pentobarbitone sodium (60 mg/kg) and the jugular vein, trachea and carotid artery were cannulated. […] A decrease in heart rate of more than 30% from control values was considered to be significant bradycardia.

tremorine = assay: Anti-tremorine activity; type: in vivo; conditions: result in words
Antiarrhythmic activity = conditions: result in words
[4] = pA2 (antihistamine activity), Table 2
[5] = 0.25 h, read-out: Hypotensive Activity
[6] = read-out: Significant hypotension (dose; fall of 30 mm mercury or more in diastolic pressure)
[7] = Table 4, read-out: Antihistamine pA2 (converted)

T1 sequence (P31389 whole entry): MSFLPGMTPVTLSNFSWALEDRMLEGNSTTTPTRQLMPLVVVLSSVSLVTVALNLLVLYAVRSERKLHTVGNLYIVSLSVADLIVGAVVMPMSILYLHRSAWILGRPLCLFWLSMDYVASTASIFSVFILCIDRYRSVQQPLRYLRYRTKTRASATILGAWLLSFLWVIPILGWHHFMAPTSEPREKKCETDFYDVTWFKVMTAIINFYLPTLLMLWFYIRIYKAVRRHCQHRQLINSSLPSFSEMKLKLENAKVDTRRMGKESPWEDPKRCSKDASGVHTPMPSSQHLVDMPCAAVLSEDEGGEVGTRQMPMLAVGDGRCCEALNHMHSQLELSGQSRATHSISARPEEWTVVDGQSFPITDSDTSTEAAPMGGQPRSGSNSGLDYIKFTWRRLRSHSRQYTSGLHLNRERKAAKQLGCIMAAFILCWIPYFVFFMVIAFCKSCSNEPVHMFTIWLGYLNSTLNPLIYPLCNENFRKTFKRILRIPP

Compound | depressant activity (Depressant activity) | antihistamine activity (histamine) | hypotensive activity (blood pressure) | minimal effective dose [3, 5] [mg/kg] | other results
O=C(CCCN1CCC(NC(=O)c2ccccc2)CC1)c1ccc(F)cc1 [Example 19, 1-[4-(4-Fluorophenyl)-4-oxobutyl]-4-benzamidopiperidine] | depressant | antihistamine | marked hypotensive activity | 0.8 | Kb (histamine; [4]): 2.51 nM; Significant lowering of blood pressure [1]: 38 mmHg; cardiac effort index [1]: lowered; cardiac output [1]: decreased; heart rate lowered [1]: 28.9%; myocardial contractile force decreased [1]: 25.7%; Pressure reduced to (systolic pressure; 10 mg/kg p.o., from 188 mmHg): 138 mmHg; anti-inflammatory activity [2]: antiinflammatory activity; α-blockade pA2 (α-adrenoceptor): 7.5; pA2 (α-adrenoceptor antagonism) (α-adrenoceptor): 7.4; minimal effective dose [3, 6]: 0.8 to 1.6 mg/kg; Significant bradycardia (dose; decrease in heart rate of more than 30%) [3]: 1.6 mg/kg
Nc1ccccc1CCN1CCC(NC(=O)c2ccccc2)CC1 [Example 35, 1-[2-(o-Aminophenyl)ethyl]-4-benzamidopiperidine] | depressant activities | – | hypotensive | 6.4 to 12.8 | –
CC(=O)Nc1ccc(CCN2CCC(NC(=O)c3ccccc3)CC2)cc1 [Example 24, 1-[2-(p-Acetamidophenyl)ethyl]-4-benzamidopiperidine] | depressant | – | hypotensive activity | 6.4 to 12.8 | anti-tremorine activity (tremorine): anti-tremorine activities
O=C(NC1CCN(CCCc2ccccc2)CC1)c1ccccc1 [Example 39, 1-[3-Phenylpropyl]-4-benzamidopiperidine] | – | anti-histamine | good hypotensive activity | 6.4 to 12.8 | anti-tremorine activity (tremorine): anti-tremorine activities; Kb (histamine; [7]): 2.51 nM; Kb (histamine; [4]): 3.16 nM; pA2 (α-adrenoceptor antagonism) (α-adrenoceptor): 7.1; α-adrenoceptor antagonism (α-adrenoceptor): α-adrenoceptor antagonism; minimal effective dose [3, 6]: 0.8 to 6.4 mg/kg; Significant bradycardia (dose; decrease in heart rate of more than 30%) [3]: 25.6 mg/kg
O=C(NC1CCN(CC2COc3ccccc3O2)CC1)c1ccccc1 (stereo not shown) [Example 102, 2-(4'-Benzamidopiperid-1-yl)methylbenzo-1,4-dioxan] | – | – | marked hypotensive activity | – | anti-inflammatory activity [2]: anti-inflammatory activity
O=C(NC1CCN(CCc2ccc(O)c(O)c2)CC1)c1ccccc1 [Example 9, 1-[2(3,4-Dihydroxyphenyl)ethyl]-4-benzamidopiperidine] | depressant activity | antihistamine | – | < 30 | –
O=C(CCCN1CCC(NC(=O)c2ccccc2)CC1)c1ccc(Cl)cc1 [Example 51, 4-Benzamido-1-[4-(p-chlorophenyl)-4-oxobutyl]piperidine] | – | anti-histamine | hypotensive activity | 6.4 to 12.8 | Kb (histamine; [7]): 20 nM; anti-inflammatory activity [2]: anti-inflammatory activity; α-blockade pA2 (α-adrenoceptor): 8.4; α-adrenoceptor antagonism (α-adrenoceptor): highly potent α-adrenoceptor antagonist activity
O=C(NC1CCN(CCc2ccc([N+](=O)[O-])cc2)CC1)c1ccccc1 [Example 22, 1-[2-(p-Nitrophenyl)ethyl]-4-benzamidopiperidine] | depressant | – | hypotensive activity | 25.6 | anti-tremorine activity (tremorine): anti-tremorine activities
O=C(NC1CCN(CCc2c(Cl)cccc2Cl)CC1)c1ccccc1 [Example 38, 1-[2-(2,6-Dichlorophenyl)ethyl]-4-benzamidopiperidine] | depressant activities | – | hypotensive activity | < 30 | anti-tremorine activity (tremorine): anti-tremorine
O=C(CN1CCC(NC(=O)c2ccccc2)CC1)c1ccc(Cl)c(Cl)c1 [Example 34] | depressant activities | – | hypotensive | < 30 | –
COc1ccc(CCN2CCC(NC(=O)c3ccc4c(c3)OCO4)CC2)cc1OC [Example 7, 1-[2-(3,4-Dimethoxyphenyl)ethyl]-4-piperonylamidopiperidine] | depressant activity | – | hypotensive | < 30 | –
O=C(NC1CCN(CCc2ccc(Cl)c(Cl)c2)CC1)c1ccccc1 [Example 37, 1-[2-(3,4-Dichlorophenyl)ethyl]-4-benzamidopiperidine] | – | antihistamine | good hypotensive activity | 1.6 to 3.2 | anti-tremorine activity (tremorine): anti-tremorine activities; Kb (histamine; [7]): 3.98 nM; α-blockade pA2 (α-adrenoceptor): 7.35; α-adrenoceptor antagonism (α-adrenoceptor): α-adrenoceptor antagonism
Nc1ccc(CCN2CCC(NC(=O)c3ccccc3)CC2)cc1 [Example 23, 1-[2-(p-Aminophenyl)ethyl]-4-benzamidopiperidine] | depressant activity | – | hypotensive activity | < 30 | –
O=C(NC1CCN(Cc2ccc3c(c2)OCO3)CC1)c1ccccc1 [Example 47, 4-Benzamido-1-(3,4-methylenedioxybenzyl)piperidine] | – | – | hypotensive activity | 25.6 | anti-inflammatory activity [2]: anti-inflammatory activity
O=C(CN1CCC(NC(=O)c2ccccc2)CC1)c1ccccc1 [Example 10, 1-Phenacyl-4-benzamidopiperidine] | depressant activity | – | hypotensive | 6.4 to 12.8 | α-blockade pA2 (α-adrenoceptor): 5.8
O=C(NC1CCN(CCc2ccc3ccccc3c2)CC1)c1ccccc1 [Example 13, 1-[2-(2-Naphthyl)ethyl]-4-benzamidopiperidine] | – | antihistamine | hypotensive activity | 1.6 to 3.2 | antiarrhythmic activity (Antiarrhythmic activity): antiarrythmic activities; Kb (histamine; [7]): 25.1 nM; α-blockade pA2 (α-adrenoceptor): 7.4; α-adrenoceptor antagonism (α-adrenoceptor): α-adrenoceptor antagonism
O=C(NC1CCN(CCc2cccc3ccccc23)CC1)c1ccccc1 [Example 12, 1-[2-(1-Naphthyl)ethyl]-4-benzamidopiperidine] | depressant activity | – | – | < 30 | –
O=C(NC1CCN(CC(O)COc2cccc3ccccc23)CC1)c1ccccc1 (stereo not shown) [Example 21, 1-[3-(1-Naphthoxy)-2-hydroxyprop-1-yl]-4-benzamidopiperidine] | some depressant activity | – | hypotensive activity | 6.4 to 12.8 | –
O=C(CCCN1CCC(NC(=O)c2ccccc2)CC1)c1ccc(F)cc1 [Example 42, 4-benzamido-1-[4-(p-fluorophenyl)-4-oxobutyl]-piperidine] | – | antihistamine | marked hypotensive activity | – | anti-inflammatory activity [2]: anti-inflammatory activity; α-adrenoceptor antagonism (α-adrenoceptor): α-adrenoceptor antagonist
O=C(NC1CCN(CCCC(O)c2ccc(F)cc2)CC1)c1ccccc1 (stereo not shown) [Example 54, 1-[4-(p-Fluorophenyl)-4-hydroxybutyl]-4-benzamidopiperidine] | – | potent antihistamine activity | hypotensive activity | 6.4 to 12.8 | Kb (histamine; [4]): 316 nM; Pressure reduced to (systolic pressure; 10 mg/kg, from 209 mmHg): 164 mmHg; toxicity (systolic pressure; 40 m.p.k.): Toxic; pA2 (α-adrenoceptor antagonism) (α-adrenoceptor): 6.6; minimal effective dose [3, 6]: 6.4 to 12.8 mg/kg; Significant bradycardia (dose; decrease in heart rate of more than 30%) [3]: 6.4 to 12.8 mg/kg
COc1ccc(CCN2CCC(N)CC2)cc1OC [Example 4, 1-[2-(3,4-Dimethoxyphenyl)ethyl]-4-aminopiperidine] | depressant activity | – | hypotensive | – | –
O=C(NC1CCN(CCc2ccccn2)CC1)c1ccccc1 [Example 94, 1-[2-(2-Pyridyl)ethyl]-4-benzamidopiperidine] | depressant activities | antihistamine | marked hypotensive activity | – | –
O=C(NC1CCN(CCc2c[nH]c3c2ccc2ccccc23)CC1)c1ccccc1 [Example 101, 1-[2-(3-Benz[g]indolyl)ethyl]-4-benzamidopiperidine] | depressant activity | – | marked hypotensive activity | 6.4 to 12.8 | –
